According to paper PMC2691587 (Journal of medicinal chemistry, 2009):

Tests used:
H1299 cells = assay: Western blot of K40-acetylated α-tubulin levels in H1299 cells; format: cell-based, human
SIRT2 = conditions: read-out: SIRT2 IC50 (previously reported); in vitro; cited from earlier work
SIRT1 = conditions: read-out: SIRT1 IC50 (previously reported); in vitro; cited from earlier work
NCI H460 cancer cells = conditions: in the presence of etoposide (10 μM); cited from earlier work
[1] = system: MCF-7 breast adenocarcinoma cells; assay: Western blot of p53 and K382-acetylated p53 levels in MCF-7 cells; format: cell-based, human
human recombinant SIRT1 = molecular target: T1, human recombinant SIRT1 (Homo sapiens, UniProt Q96EB6); assay: SIRT1 inhibition, Fluor de Lys fluorescence-based assay; format: biochemical; conditions: ratio of IC50 values versus 1
T1 sequence (Q96EB6 1-747): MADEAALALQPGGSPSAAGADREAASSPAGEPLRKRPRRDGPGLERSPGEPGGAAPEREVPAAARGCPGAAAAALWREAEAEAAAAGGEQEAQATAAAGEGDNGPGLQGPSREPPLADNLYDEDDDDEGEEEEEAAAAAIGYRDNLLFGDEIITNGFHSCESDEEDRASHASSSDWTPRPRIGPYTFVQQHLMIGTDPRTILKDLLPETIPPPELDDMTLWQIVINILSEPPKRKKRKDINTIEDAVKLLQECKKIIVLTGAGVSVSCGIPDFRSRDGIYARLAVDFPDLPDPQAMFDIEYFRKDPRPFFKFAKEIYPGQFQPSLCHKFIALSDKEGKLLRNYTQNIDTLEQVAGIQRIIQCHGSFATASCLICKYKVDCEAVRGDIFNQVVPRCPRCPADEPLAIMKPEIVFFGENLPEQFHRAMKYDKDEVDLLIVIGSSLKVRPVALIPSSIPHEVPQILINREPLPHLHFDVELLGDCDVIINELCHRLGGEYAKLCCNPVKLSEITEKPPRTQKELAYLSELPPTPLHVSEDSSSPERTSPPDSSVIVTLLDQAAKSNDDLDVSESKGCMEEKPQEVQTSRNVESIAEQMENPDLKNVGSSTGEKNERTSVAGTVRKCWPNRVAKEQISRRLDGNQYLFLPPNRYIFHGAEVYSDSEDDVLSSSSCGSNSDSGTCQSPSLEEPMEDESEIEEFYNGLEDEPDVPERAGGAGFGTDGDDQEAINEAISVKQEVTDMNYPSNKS

O=c1[nH]c(=S)[nH]c(-c2ccccc2)c1Cc1c(O)ccc2ccccc12 [compound 1, 6-Phenyl-5-[2″-hydroxynaphthyl-(1″)-methyl]-2-thioxo-2,3-dihydro-1H-pyrimidin-4-one]
levels of acetylated α-tubulin (H1299 cells; H1299 cells, with 40 nM trichostatin A, 24 h): did lead to an increase in levels of acetylated tubulin
IC50 (SIRT2): 59 µM
IC50 (SIRT1): 56 µM
levels of p53 and acetylated p53 (NCI H460 cancer cells): increased levels of p53 and acetylated p53
levels of p53 and acetylated p53 ([1]; MCF-7, in the presence of etoposide (10 μM), 200 μM compound): decreased again
levels of p53 and Lys382 acetylated p53 ([1]; MCF-7, in the presence of etoposide (10 μM), 20 and 50 μM compound, 6 h): increased

O=c1[nH]c(=S)[nH]c(-c2ccc(Br)cc2)c1Cc1c(O)ccc2ccccc12 [6b, 6-(4′-Bromophenyl)-5-[2″-hydroxynaphthyl-(1″)-methyl]-2-thioxo-2,3-dihydro-1H-pyrimidin-4-one]
levels of acetylated α-tubulin (H1299 cells; Figure S13, cell line not given): did not lead to an increase in the levels of acetylated α-tubulin
levels of p53 ([1]; MCF-7, compound alone, in the absence of etoposide, different concentrations): did not increase the levels of p53
improvement in activity (IC50) against SIRT1 compared to 1 (human recombinant SIRT1): 3 fold

CCCCn1c(-c2ccccc2)c(Cc2c(O)ccc3ccccc23)c(=O)[nH]c1=S [6j, 6-Phenyl-5-[2″-hydroxynaphthalyl-(1″)-methyl]-1-butyl-2-thioxo-2,3-dihydro-1H-pyrimidin-4-one]
levels of acetylated α-tubulin compared to the effect of 1 (H1299 cells; H1299 cells, with trichostatin A, concentration range 10–50 μM): an increase in the levels of acetylated α-tubulin was achieved
toxicity in cells (H1299 cells; concentrations higher than 10–50 μM): toxicity
